From paper PMC9756503, “Pharmacodynamic properties for inhibition of cAMP- and cGMP elimination by pentoxifylline remain unaltered in vitro during hypothermia” (Scandinavian Journal of Trauma, Resuscitation and Emergency …, 2022)
Where two headings read alike, the source gives them in different places.

What was measured:
Recombinant human PDE3 = assay: Inhibition of PDE3-mediated enzymatic breakdown of cAMP; type: biochemical; settings: for Ki: Cheng-Prusoff; for [PDE3-inhibition]/[PDE5-inhibition] / [PDE3-inhibition]/[cAMP-efflux inhibition]: ratio between IC50-values
Method: (§1) Assessment of pentoxifyllines ability to inhibit the phosphodiesterase enzymes were performed by incubating cAMP or cGMP with seven different concentrations of pentoxifylline. The concentrations were increasing by a factor of 10 ranging from 1.00 nM to 1.00 mM. For PDE3 assessment, the incubation solution included cAMP and for PDE5 assessment it included cGMP. Experiments were performed in triplicates each day at three separate days - in total 9 parallels. The reaction was started by adding either a solution containing 0.016 units/µg protein of PDE3 (Abcam, Cambridge UK), or 0.022 units/µg protein of PDE5 (Sigma-Aldrich, St. Louis, USA), to the Eppendorf tubes. Control samples were free of drug and was either with or without PDE3 or PDE5. This was done to assure that only the relevant PDE was responsible for breakdown of the cyclic nucleotide, as no other enzyme nor cellular material was added to the incubations. The incubation time was 30 min. Reaction was stopped by adding methanol to the tubes. Internal standard of cGMP/GMP or cAMP/AMP (Sigma-Aldrich, St. Louis, MO, USA, Germany and Toronto Research Chemicals Inc., Ontario, Canada) were added to each sample. 5 samples contained only known concentrations of cGMP/GMP or cAMP/AMP and served as calibrators. Samples were analyzed for cGMP/GMP and cAMP/AMP content, using MS [14, 15].
Quantification of cAMP/AMP, cGMP/GMP and pentoxifylline in PDE- and intracellular access experiments were performed with liquid chromatography tandem mass spectrometry (LC–MS/MS). Preparation of samples for LC–MS/MS-analysis is described in paragraphs above.
(§2) Analysis and graph production were performed in SigmaPlot 14.0 (Systat Software, San Jose, CA, USA.). Ability to inhibit the different elimination pathways, enzymes and efflux pumps, were calculated as IC50-values, as according to Chou. Ki-values were obtained by using the methods described by Cheng and Prustoff. Measurement of intracellular concentrations of drugs were adjusted for protein concentrations in each sample. The incubation concentrations were also adjusted for protein concentration in each sample to evaluate the access in percentage. […] The same analysis was performed for intracellular concentrations of pentoxifylline during hypothermia compared to baseline (37 °C). When data was not normally distributed ANOVA on ranks and Dunn`s post hoc test was performed. Data are presented as mean ± standard error of the mean (SEM). p-values were considered significant when < 0.05.

Recombinant human PDE5 = target: T1, Recombinant human PDE5 (Homo sapiens, UniProt O76074); assay: Inhibition of PDE5-mediated enzymatic breakdown of cGMP; type: biochemical; settings: for Ki: Cheng-Prusoff; for [PDE5-inhibition]/[cGMP-efflux inhibition]: ratio between IC50-values
T1 construct: purchased Sigma-Aldrich
Method: as §1
Quantification of cAMP/AMP, cGMP/GMP and pentoxifylline in PDE- and intracellular access experiments were performed with liquid chromatography tandem mass spectrometry (LC–MS/MS). Preparation of samples for LC–MS/MS-analysis is described in paragraphs above. […] For GMP the method was linear from 2 nM to at least 2000 nM (r^2 > 0.998), and 10 nM to at least 5000 nM for pentoxifylline (r^2 > 0.998).
Analysis and graph production were performed in SigmaPlot 14.0 (Systat Software, San Jose, CA, USA.). Ability to inhibit the different elimination pathways, enzymes and efflux pumps, were calculated as IC50-values, as according to Chou. Ki-values were obtained by using the methods described by Cheng and Prustoff. Measurement of intracellular concentrations of drugs were adjusted for protein concentrations in each sample. The incubation concentrations were also adjusted for protein concentration in each sample to evaluate the access in percentage. Analysis of variance (ANOVA) with Holm-Sidak multiple comparison post-hoc test was performed to evaluate changes in IC50-values compared to baseline (37 °C) for all elimination pathways. The same analysis was performed for intracellular concentrations of pentoxifylline during hypothermia compared to baseline (37 °C). When data was not normally distributed ANOVA on ranks and Dunn`s post hoc test was performed. Data are presented as mean ± standard error of the mean (SEM). p-values were considered significant when < 0.05.

ABCC4 = target: T2, ABCC4 (Homo sapiens, UniProt O15439); assay: biochemical; type: biochemical; settings: for Ki: Cheng-Prusoff, read-out: Ki for inhibition of cAMP-efflux; for [cAMP-efflux inhibition]/[cGMP-efflux inhibition]: ratio between IC50-values; for IC50: read-out: IC50 for inhibition of cAMP-efflux
T2 construct: inside-out vesicles (IOV)s where erythrocytes from healthy, human donors were sampled; endogenous in cells; host or cells: inside-out vesicles from erythrocytes of healthy human donors
T2 sequence (O15439 1-1325): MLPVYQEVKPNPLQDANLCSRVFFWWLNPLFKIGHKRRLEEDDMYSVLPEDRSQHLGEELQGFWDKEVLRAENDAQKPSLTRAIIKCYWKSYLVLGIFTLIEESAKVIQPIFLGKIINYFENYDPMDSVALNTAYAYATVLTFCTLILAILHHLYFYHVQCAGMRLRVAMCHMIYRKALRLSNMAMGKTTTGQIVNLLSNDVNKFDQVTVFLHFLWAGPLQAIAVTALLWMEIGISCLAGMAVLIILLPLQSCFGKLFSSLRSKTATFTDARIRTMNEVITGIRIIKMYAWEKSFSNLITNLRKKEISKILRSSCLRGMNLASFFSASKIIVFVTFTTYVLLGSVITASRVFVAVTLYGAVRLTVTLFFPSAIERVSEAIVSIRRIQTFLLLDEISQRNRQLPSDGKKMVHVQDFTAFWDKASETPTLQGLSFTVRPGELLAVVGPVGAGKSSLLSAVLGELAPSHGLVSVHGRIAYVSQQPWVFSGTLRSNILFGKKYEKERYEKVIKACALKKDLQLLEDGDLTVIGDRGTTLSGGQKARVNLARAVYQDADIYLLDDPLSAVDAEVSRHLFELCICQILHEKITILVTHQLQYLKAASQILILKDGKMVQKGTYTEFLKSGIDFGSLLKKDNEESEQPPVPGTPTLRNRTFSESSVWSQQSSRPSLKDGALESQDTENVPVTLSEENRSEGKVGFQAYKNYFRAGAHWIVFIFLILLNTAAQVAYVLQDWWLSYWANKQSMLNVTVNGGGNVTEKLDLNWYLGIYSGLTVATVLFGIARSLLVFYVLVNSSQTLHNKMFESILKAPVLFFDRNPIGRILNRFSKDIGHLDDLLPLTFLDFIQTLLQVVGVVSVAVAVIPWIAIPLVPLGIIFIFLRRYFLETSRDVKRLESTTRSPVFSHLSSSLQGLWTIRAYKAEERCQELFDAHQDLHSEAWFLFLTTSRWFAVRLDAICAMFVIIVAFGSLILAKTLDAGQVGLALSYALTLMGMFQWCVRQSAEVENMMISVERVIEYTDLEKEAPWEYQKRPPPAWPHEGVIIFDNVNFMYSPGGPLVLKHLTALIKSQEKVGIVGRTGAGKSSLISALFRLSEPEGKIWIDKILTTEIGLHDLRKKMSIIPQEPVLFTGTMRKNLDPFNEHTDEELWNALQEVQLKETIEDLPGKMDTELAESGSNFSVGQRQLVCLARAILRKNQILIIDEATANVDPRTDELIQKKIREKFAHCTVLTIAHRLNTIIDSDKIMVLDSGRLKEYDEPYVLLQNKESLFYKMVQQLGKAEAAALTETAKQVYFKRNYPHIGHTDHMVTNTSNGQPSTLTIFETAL
Method: (§3) Cellular efflux was estimated with inside-out vesicles (IOV)s where erythrocytes from healthy, human donors were sampled. Donors were pre-screened and only admitted as donors by Blodbanken UNN (Department of Immunohematology and Transfusion Medicine, University Hospital of North Norway) if they were healthy. The erythrocytes were separated from plasma by centrifugation and washed. Inside-out vesicles were prepared according to Orvoll et al. with minor modifications. Percentage IOV was verified using acetylcholinesterase accessibility test. Batches of IOVs used in the parallels were made 8 times, including blood from a total of 35 healthy donors.
(§4) IOVs were then incubated with or without 2 mM ATP and 7 different concentrations of pentoxifylline increasing by a factor of 10 ranging from 1.00 nM to 1.00 mM. The incubation solutions also included radioactive labeled [^3H]-cGMP or [^3H]-cAMP (Perkin Elmer, Boston, MA, USA), at a concentration of respectively 2 µM and 20 µM. [^3H]-cAMP was used to assess ABCC4-inhibition and [^3H]-cGMP for ABCC5-inhibition. The assays were performed in triplicates at 3 different days: In total 9 parallels were performed to calculate results for each concentration of pentoxifylline at all temperatures. Incubation time of 60 min was chosen to ensure sufficient quality of the samples for each parallel. The transport was stopped by adding ice cold buffer. The IOVs were then filtered through a nitrocellulose membrane (Bio-Rad Laboratories, Feldkirchen Germany), and the membrane was dried. The dried membranes were later added scintillation fluid and radioactivity was measured using a Packard TopCount NXT (Packard, Downers Grove, IL, USA).
as §2

ABCC5 = target: T3, ABCC5 (Homo sapiens, UniProt O15440); assay: Inhibition of [3H]-cGMP efflux in erythrocyte inside-out vesicles; type: biochemical; settings: for Ki: Cheng-Prusoff
T3 construct: inside-out vesicles (IOV)s where erythrocytes from healthy, human donors were sampled; endogenous in cells; host or cells: inside-out vesicles from erythrocytes of healthy human donors
T3 sequence (O15440 whole entry): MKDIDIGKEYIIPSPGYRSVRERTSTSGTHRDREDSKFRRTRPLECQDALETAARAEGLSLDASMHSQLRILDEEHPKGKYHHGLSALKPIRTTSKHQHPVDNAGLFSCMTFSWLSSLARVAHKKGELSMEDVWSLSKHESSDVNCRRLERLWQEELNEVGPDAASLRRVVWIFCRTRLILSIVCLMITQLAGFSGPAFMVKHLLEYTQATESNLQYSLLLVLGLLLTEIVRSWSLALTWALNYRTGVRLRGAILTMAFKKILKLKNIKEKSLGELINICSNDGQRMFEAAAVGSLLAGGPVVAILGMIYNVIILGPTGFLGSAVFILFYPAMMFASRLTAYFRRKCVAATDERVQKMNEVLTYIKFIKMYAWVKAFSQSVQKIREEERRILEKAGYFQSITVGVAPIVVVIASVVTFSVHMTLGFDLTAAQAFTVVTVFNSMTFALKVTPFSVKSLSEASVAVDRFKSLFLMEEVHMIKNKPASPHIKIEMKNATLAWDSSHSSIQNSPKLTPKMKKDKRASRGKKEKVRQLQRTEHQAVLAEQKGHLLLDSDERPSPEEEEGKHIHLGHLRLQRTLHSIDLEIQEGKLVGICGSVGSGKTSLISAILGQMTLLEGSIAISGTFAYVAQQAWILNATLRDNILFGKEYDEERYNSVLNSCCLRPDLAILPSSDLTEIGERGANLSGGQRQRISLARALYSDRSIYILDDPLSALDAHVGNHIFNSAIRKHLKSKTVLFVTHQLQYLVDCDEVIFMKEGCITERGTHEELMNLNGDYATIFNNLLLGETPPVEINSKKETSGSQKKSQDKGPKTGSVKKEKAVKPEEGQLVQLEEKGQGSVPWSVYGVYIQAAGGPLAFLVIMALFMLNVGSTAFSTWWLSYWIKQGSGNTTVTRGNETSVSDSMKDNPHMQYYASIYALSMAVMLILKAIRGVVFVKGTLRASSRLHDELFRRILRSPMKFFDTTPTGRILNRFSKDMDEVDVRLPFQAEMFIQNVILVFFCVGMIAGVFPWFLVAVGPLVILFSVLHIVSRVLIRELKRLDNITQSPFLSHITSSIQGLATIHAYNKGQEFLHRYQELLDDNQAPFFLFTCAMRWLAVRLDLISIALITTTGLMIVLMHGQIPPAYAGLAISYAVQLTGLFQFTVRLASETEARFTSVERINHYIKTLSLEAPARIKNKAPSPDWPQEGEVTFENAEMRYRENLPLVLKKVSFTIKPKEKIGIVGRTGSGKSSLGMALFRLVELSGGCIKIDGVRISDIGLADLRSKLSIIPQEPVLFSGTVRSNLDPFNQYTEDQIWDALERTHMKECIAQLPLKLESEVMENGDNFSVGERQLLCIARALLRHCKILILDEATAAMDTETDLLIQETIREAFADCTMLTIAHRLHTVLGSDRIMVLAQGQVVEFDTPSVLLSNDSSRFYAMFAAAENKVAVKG
Method: as §3, §4, §2

[1] = design: method as in PMID 26870389; settings: review on cardiovascular effects; cited from earlier work

## CC(=O)CCCCn1c(=O)c2c(ncn2C)n(C)c1=O [pentoxifylline]
Recombinant human PDE3; 20 °C
  IC50: 31 ± 9.47 µM
  Ki: 1.42 ± 0.434 µM
  [PDE3-inhibition]/[PDE5-inhibition]: 0.788
Recombinant human PDE3; 24 °C
  IC50: 29.2 ± 4.72 µM
  Ki: 1.34 ± 0.216 µM
  [PDE3-inhibition]/[PDE5-inhibition]: 1.16
Recombinant human PDE3; 28 °C
  IC50: 22.4 ± 6.36 µM
  Ki: 1.02 ± 0.291 µM
  [PDE3-inhibition]/[PDE5-inhibition]: 0.920
  [PDE3-inhibition]/[cAMP-efflux inhibition]: 11.6
Recombinant human PDE3; 32 °C
  IC50: 26.7 ± 4.7 µM
  Ki: 1.22 ± 0.215 µM
  [PDE3-inhibition]/[PDE5-inhibition]: 1.72
  [PDE3-inhibition]/[cAMP-efflux inhibition]: 13.3
Recombinant human PDE3; 34 °C
  IC50: 14.2 ± 1.51 µM
  Ki: 0.651 ± 0.069 µM
  [PDE3-inhibition]/[PDE5-inhibition]: 1.33
  [PDE3-inhibition]/[cAMP-efflux inhibition]: 3.94
Recombinant human PDE3; 37 °C
  IC50: 15.8 ± 4.25 µM
  Ki: 0.723 ± 0.195 µM
  [PDE3-inhibition]/[PDE5-inhibition]: 2.05
  [PDE3-inhibition]/[cAMP-efflux inhibition]: 11.9
Recombinant human PDE5; 20 °C
  IC50: 39.4 ± 10.9 µM
  Ki: 10 ± 2.78 µM
  [PDE5-inhibition]/[cGMP-efflux inhibition]: 102
Recombinant human PDE5; 24 °C
  IC50: 25.2 ± 6.57 µM
  Ki: 6.4 ± 1.67 µM
  [PDE5-inhibition]/[cGMP-efflux inhibition]: 50.2
Recombinant human PDE5; 28 °C
  IC50: 24.3 ± 5.58 µM
  Ki: 6.17 ± 1.42 µM
  [PDE5-inhibition]/[cGMP-efflux inhibition]: 28.6
Recombinant human PDE5; 32 °C
  IC50: 15.5 ± 0.753 µM
  Ki: 3.94 ± 0.191 µM
  [PDE5-inhibition]/[cGMP-efflux inhibition]: 21.4
Recombinant human PDE5; 34 °C
  IC50: 10.7 ± 1.92 µM
  Ki: 2.71 ± 0.487 µM
  [PDE5-inhibition]/[cGMP-efflux inhibition]: 12.0
Recombinant human PDE5; 37 °C
  IC50: 7.7 ± 0.265 µM
  Ki: 1.95 ± 0.067 µM
  [PDE5-inhibition]/[cGMP-efflux inhibition]: 14.5
ABCC4; 28 °C
  Ki: 0.918 ± 0.465 µM
  [cAMP-efflux inhibition]/[cGMP-efflux inhibition]: 2.27
  IC50: 1.93 ± 1.11 µM
ABCC4; 32 °C
  Ki: 1.16 ± 0.526 µM
  [cAMP-efflux inhibition]/[cGMP-efflux inhibition]: 2.78
  IC50: 2.01 ± 0.819 µM
ABCC4; 34 °C
  Ki: 2.03 ± 1.46 µM
  [cAMP-efflux inhibition]/[cGMP-efflux inhibition]: 4.04
  IC50: 3.61 ± 2.59 µM
ABCC4; 37 °C
  Ki: 0.805 ± 0.343 µM
  [cAMP-efflux inhibition]/[cGMP-efflux inhibition]: 2.50
  IC50: 1.33 ± 0.566 µM
ABCC4; temperatures below 28 °C (24 and 20 °C)
  Inhibition of cAMP-efflux (ABCC4-activity): no inhibition
ABCC5; 20 °C
  IC50: 0.388 ± 0.07 µM
ABCC5; 24 °C
  IC50: 0.502 ± 0.315 µM
  Ki: 0.32 ± 0.183 µM
ABCC5; 28 °C
  IC50: 0.851 ± 0.281 µM
  Ki: 0.481 ± 0.159 µM
ABCC5; 32 °C
  IC50: 0.724 ± 0.206 µM
  Ki: 0.409 ± 0.116 µM
ABCC5; 34 °C
  IC50: 0.893 ± 0.401 µM
  Ki: 0.505 ± 0.226 µM
ABCC5; 37 °C
  IC50: 0.531 ± 0.338 µM
  Ki: 0.3 ± 0.191 µM
[1]
  clinical serum concentrations: 1 to 10 µM
